Measured values: PubChem BioAssay AID2060887 (Molecular Pharmacology Branch, DTP, NCI, 2025)

Tested on: 782815-120-R-J1-PDC complex spheroid viability
Test: Anticancer human tumor 782815-120-R-J1-PDC patient-derived colon adenocarcinoma cell line growth inhibition [RAS]
Conditions: for IC50: curve of first compound; for viability, T/C: stronger effect = lower value
Procedure, shortened: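 Multi-cell-type spheroids: tumor cells plus HUVEC endothelial cells and mesenchymal stem cells. RAS-pathway inhibitors were combined with targeted agents, each dosed in half-log steps down from clinical Cmax, or from 10 microM when Cmax was unknown.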

[1] = second compound 0.000949 µM, first compound 0.0316 µM
[2] = second compound 0.000949 µM, first compound 0.1 µM
[3] = second compound 0.000949 µM, first compound 0.316 µM
[4] = second compound 0.000949 µM, first compound 1 µM
[5] = second compound 0.003 µM, first compound 0.0316 µM
[6] = second compound 0.003 µM, first compound 0.1 µM
[7] = second compound 0.003 µM, first compound 0.316 µM
[8] = second compound 0.003 µM, first compound 1 µM
[9] = second compound 0.00949 µM, first compound 0.0316 µM
[10] = second compound 0.00949 µM, first compound 0.1 µM
[11] = second compound 0.00949 µM, first compound 0.316 µM
[12] = second compound 0.00949 µM, first compound 1 µM
[13] = second compound 0.03 µM, first compound 0.0316 µM
[14] = second compound 0.03 µM, first compound 0.1 µM
[15] = second compound 0.03 µM, first compound 0.316 µM
[16] = second compound 0.03 µM, first compound 1 µM
[17] = second compound 0.0949 µM, first compound 0.0316 µM
[18] = second compound 0.0949 µM, first compound 0.1 µM
[19] = second compound 0.0949 µM, first compound 0.316 µM
[20] = second compound 0.0949 µM, first compound 1 µM
[21] = second compound 0.3 µM, first compound 0.0316 µM
[22] = second compound 0.3 µM, first compound 0.1 µM
[23] = second compound 0.3 µM, first compound 0.316 µM
[24] = second compound 0.3 µM, first compound 1 µM
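Further: spheroids exposed to compounds for 7 days before reading.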
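Wherever viability, T/C is given: 100% = DMSO vehicle control viability.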

CC(C)n1nc(-c2ccc3oc(N)nc3c2)c2c(N)ncnc21 + C=CC(=O)N1CCN(c2nc(OCC3CCCN3C)nc3c(F)c(-c4nc(N)cc(C)c4C(F)(F)F)c(Cl)cc23)C(C)C1 gave an IC50 (second compound 0.00316 µM) greater than 100 nM, an IC50 (second compound 0.01 µM) greater than 100 nM and an IC50 (second compound 0.0316 µM) greater than 100 nM. For the same compound, the IC50 (second compound 0.1 µM) was greater than 100 nM, the IC50 (second compound 0.316 µM) was greater than 100 nM and the IC50 (second compound 1 µM) was greater than 100 nM. It also gave a viability, T/C (second compound 0.00316 µM, first compound 0.000316 µM) of 101%, a viability, T/C (second compound 0.00316 µM, first compound 0.001 µM) of 101% and a viability, T/C (second compound 0.00316 µM, first compound 0.00316 µM) of 96.1%. It also gave a viability, T/C (second compound 0.00316 µM, first compound 0.01 µM) of 91.7%, a viability, T/C (second compound 0.00316 µM, first compound 0.0316 µM) of 90.2% and a viability, T/C (second compound 0.00316 µM, first compound 0.1 µM) of 93.1%. It also gave a viability, T/C (second compound 0.01 µM, first compound 0.000316 µM) of 99.8%, a viability, T/C (second compound 0.01 µM, first compound 0.001 µM) of 95.9% and a viability, T/C (second compound 0.01 µM, first compound 0.00316 µM) of 100%. The viability, T/C (second compound 0.01 µM, first compound 0.01 µM) was 89.1%, the viability, T/C (second compound 0.01 µM, first compound 0.0316 µM) was 92.7% and the viability, T/C (second compound 0.01 µM, first compound 0.1 µM) was 95.5%. It also gave a viability, T/C (second compound 0.0316 µM, first compound 0.000316 µM) of 101%, a viability, T/C (second compound 0.0316 µM, first compound 0.001 µM) of 102% and a viability, T/C (second compound 0.0316 µM, first compound 0.00316 µM) of 98.7%. The viability, T/C (second compound 0.0316 µM, first compound 0.01 µM) was 95.8%, the viability, T/C (second compound 0.0316 µM, first compound 0.0316 µM) was 92.2% and the viability, T/C (second compound 0.0316 µM, first compound 0.1 µM) was 91.4%. For the same compound, the viability, T/C (second compound 0.1 µM, first compound 0.000316 µM) was 98.7%, the viability, T/C (second compound 0.1 µM, first compound 0.001 µM) was 102% and the viability, T/C (second compound 0.1 µM, first compound 0.00316 µM) was 91.3%. The viability, T/C (second compound 0.1 µM, first compound 0.01 µM) was 92.1%, the viability, T/C (second compound 0.1 µM, first compound 0.0316 µM) was 105% and the viability, T/C (second compound 0.1 µM, first compound 0.1 µM) was 92.6%. It also gave a viability, T/C (second compound 0.316 µM, first compound 0.000316 µM) of 97.5%, a viability, T/C (second compound 0.316 µM, first compound 0.001 µM) of 105% and a viability, T/C (second compound 0.316 µM, first compound 0.00316 µM) of 95.1%. It also gave a viability, T/C (second compound 0.316 µM, first compound 0.01 µM) of 102%, a viability, T/C (second compound 0.316 µM, first compound 0.0316 µM) of 92.8% and a viability, T/C (second compound 0.316 µM, first compound 0.1 µM) of 94.7%. The viability, T/C (second compound 1 µM, first compound 0.000316 µM) was 104%, the viability, T/C (second compound 1 µM, first compound 0.001 µM) was 104% and the viability, T/C (second compound 1 µM, first compound 0.00316 µM) was 91.5%. For the same compound, the viability, T/C (second compound 1 µM, first compound 0.01 µM) was 96.9%, the viability, T/C (second compound 1 µM, first compound 0.0316 µM) was 94.1% and the viability, T/C (second compound 1 µM, first compound 0.1 µM) was 87.7%.

In the case of CCN1CCN(Cc2ccc(Nc3ncc(F)c(-c4cc(F)c5nc(C)n(C(C)C)c5c4)n3)nc2)CC1 + CCn1c(-c2cccnc2C(C)OC)c2c3cc(ccc31)N1CCOC(CC(NC(=O)C(C(C)C)N(C)C(=O)C3(F)CCN(C(=O)C#CC(C)(C)N(C)C)CC3)C(=O)N3CCCC(N3)C(=O)OCC(C)(C)C2)C1, the IC50 (second compound 0.000949 µM) is reported as greater than 1000 nM, the IC50 (second compound 0.003 µM) is reported as greater than 1000 nM and the IC50 (second compound 0.00949 µM) is reported as greater than 1000 nM. For the same compound, the IC50 (second compound 0.03 µM) was greater than 1000 nM, the IC50 (second compound 0.0949 µM) was greater than 1000 nM and the IC50 (second compound 0.3 µM) was greater than 1000 nM. It also gave a viability, T/C (second compound 0.000949 µM, first compound 0.00316 µM) of 104%, a viability, T/C (second compound 0.000949 µM, first compound 0.01 µM) of 99.3% and a viability, T/C [1] of 106%. It also gave a viability, T/C [2] of 92%, a viability, T/C [3] of 124% and a viability, T/C [4] of 125%. The viability, T/C (second compound 0.003 µM, first compound 0.00316 µM) was 95%, the viability, T/C (second compound 0.003 µM, first compound 0.01 µM) was 97% and the viability, T/C [5] was 95.7%. The viability, T/C [6] was 98%, the viability, T/C [7] was 118% and the viability, T/C [8] was 121%. The viability, T/C (second compound 0.00949 µM, first compound 0.00316 µM) was 96.3%, the viability, T/C (second compound 0.00949 µM, first compound 0.01 µM) was 99.6% and the viability, T/C [9] was 102%. For the same compound, the viability, T/C [10] was 103%, the viability, T/C [11] was 118% and the viability, T/C [12] was 127%. It also gave a viability, T/C (second compound 0.03 µM, first compound 0.00316 µM) of 99.8%, a viability, T/C (second compound 0.03 µM, first compound 0.01 µM) of 109% and a viability, T/C [13] of 101%. The viability, T/C [14] was 102%, the viability, T/C [15] was 117% and the viability, T/C [16] was 127%. The viability, T/C (second compound 0.0949 µM, first compound 0.00316 µM) was 92.3%, the viability, T/C (second compound 0.0949 µM, first compound 0.01 µM) was 95.5% and the viability, T/C [17] was 97%. The viability, T/C [18] was 102%, the viability, T/C [19] was 123% and the viability, T/C [20] was 134%. For the same compound, the viability, T/C (second compound 0.3 µM, first compound 0.00316 µM) was 92.8%, the viability, T/C (second compound 0.3 µM, first compound 0.01 µM) was 91.6% and the viability, T/C [21] was 104%. For the same compound, the viability, T/C [22] was 110%, the viability, T/C [23] was 122% and the viability, T/C [24] was 122%.

In the case of NC1c2ccccc2OC12CCN(c1cnc3c(N4CCCc5ncccc54)n[nH]c3n1)CC2 (stereo unspecified) + CCn1c(-c2cccnc2C(C)OC)c2c3cc(ccc31)N1CCOC(CC(NC(=O)C(C(C)C)N(C)C(=O)C3(F)CCN(C(=O)C#CC(C)(C)N(C)C)CC3)C(=O)N3CCCC(N3)C(=O)OCC(C)(C)C2)C1, the IC50 (second compound 0.000949 µM) is reported as greater than 10000 nM, the IC50 (second compound 0.003 µM) is reported as greater than 10000 nM and the IC50 (second compound 0.00949 µM) is reported as greater than 10000 nM. It also gave an IC50 (second compound 0.03 µM) greater than 10000 nM, an IC50 (second compound 0.0949 µM) greater than 10000 nM and an IC50 (second compound 0.3 µM) greater than 10000 nM. It also gave a viability, T/C [1] of 97.9%, a viability, T/C [2] of 105% and a viability, T/C [3] of 108%. For the same compound, the viability, T/C [4] was 105%, the viability, T/C (second compound 0.000949 µM, first compound 3.16 µM) was 93.9% and the viability, T/C (second compound 0.000949 µM, first compound 10 µM) was 77.7%. The viability, T/C [5] was 91.5%, the viability, T/C [6] was 104% and the viability, T/C [7] was 101%. It also gave a viability, T/C [8] of 89.4%, a viability, T/C (second compound 0.003 µM, first compound 3.16 µM) of 102% and a viability, T/C (second compound 0.003 µM, first compound 10 µM) of 85.8%. For the same compound, the viability, T/C [9] was 96.2%, the viability, T/C [10] was 109% and the viability, T/C [11] was 91.5%. For the same compound, the viability, T/C [12] was 93.2%, the viability, T/C (second compound 0.00949 µM, first compound 3.16 µM) was 100% and the viability, T/C (second compound 0.00949 µM, first compound 10 µM) was 76.7%. The viability, T/C [13] was 88.5%, the viability, T/C [14] was 106% and the viability, T/C [15] was 95.1%. For the same compound, the viability, T/C [16] was 98.5%, the viability, T/C (second compound 0.03 µM, first compound 3.16 µM) was 91.2% and the viability, T/C (second compound 0.03 µM, first compound 10 µM) was 80.3%. It also gave a viability, T/C [17] of 89.1%, a viability, T/C [18] of 93% and a viability, T/C [19] of 92.6%. For the same compound, the viability, T/C [20] was 99.7%, the viability, T/C (second compound 0.0949 µM, first compound 3.16 µM) was 103% and the viability, T/C (second compound 0.0949 µM, first compound 10 µM) was 76.5%. The viability, T/C [21] was 90.8%, the viability, T/C [22] was 91.6% and the viability, T/C [23] was 85.8%. It also gave a viability, T/C [24] of 92.5%, a viability, T/C (second compound 0.3 µM, first compound 3.16 µM) of 88.6% and a viability, T/C (second compound 0.3 µM, first compound 10 µM) of 73.4%.
